Measurements as given in patent publication US10947242B2, “[1,2,4]triazolo[1,5and#8208;A]pyrimidine compounds as PDE2 inhibitors” (Janssen Pharmaceutica NV, priority 2016, dated 2021).
Like-named read-outs stand apart in the source and are kept apart here.

Tests used:
[1] = target: T1, Human recombinant PDE2A (hPDE2A) (Homo sapiens, UniProt O00408); experiment: In vitro assay PDE2A (SPA, 3H-cGMP hydrolysis); assay type: biochemical; details: for Emax: read-out: hPDE2A Emax; for IC50: read-out: hPDE2A pIC50 (converted)
T1 construct: His tag (inferred from metal chelate purification); made in house; host or cells: Sf9 insect cells (baculovirus)

[2] = target: T2, Human recombinant PDE3A (hPDE3A) (Homo sapiens, UniProt Q14432); experiment: In vitro assay PDE3A (SPA, 3H-cAMP hydrolysis); assay type: biochemical; details: for IC50: hPDE3B pIC50, read-out: pIC50 (converted); for Emax: read-out: hPDE3B Emax, read-out: Emax;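 for all read-outs here: the method names PDE3A and the table heading PDE3B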
T2 construct: purchased Scottish Biomedical; host or cells: Sf9 insect cells
In short: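 Human PDE3A, cloned from brain, as partially purified Sf9 lysate. Substrate 0.4 μM cAMP plus [3H]-cAMP (2.4 μCi/ml final) in 50 mM Tris pH 7.8, 8.3 mM MgCl2, 1.7 mM EGTA, 60 min at room temperature, 1% DMSO final. Hydrolysis read by SPA scintillation counting against no-enzyme blanks and DMSO controls.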

[3] = target: T3, Human recombinant PDE10A (hPDE10A) (Homo sapiens, UniProt Q9Y233); experiment: In vitro assay PDE10A, human clone (SPA, 3H-cAMP hydrolysis); assay type: biochemical
T3 construct: His tag (inferred from metal chelate purification); made in house; host or cells: Sf9 insect cells (baculovirus)
In short: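 Human recombinant PDE10A was expressed in Sf9 cells via baculovirus and incubated with compound in 50 mM Tris pH 7.8, 8.3 mM MgCl2, 1.7 mM EGTA. Substrate was 60 nM cAMP plus 0.008 μCi 3H-cAMP for 60 min at room temperature, read by SPA scintillation counting. Controls used 1% DMSO, and blanks omitted enzyme.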

[4] = target: T4, PDE2A (Rattus norvegicus, UniProt Q01062); experiment: PDE2 occupancy by test compounds, ex-vivo autoradiography with [3H]B-17a; assay type: in vivo, Male Wistar rats; details: 10 mg/kg, percentage receptor occupancy, ex-vivo autoradiography, striatum
T4 construct: Twenty μm-thick striatal sections were cut; from tissue; host or cells: rat brain, striatal sections
T4 sequence (Q01062 1-928): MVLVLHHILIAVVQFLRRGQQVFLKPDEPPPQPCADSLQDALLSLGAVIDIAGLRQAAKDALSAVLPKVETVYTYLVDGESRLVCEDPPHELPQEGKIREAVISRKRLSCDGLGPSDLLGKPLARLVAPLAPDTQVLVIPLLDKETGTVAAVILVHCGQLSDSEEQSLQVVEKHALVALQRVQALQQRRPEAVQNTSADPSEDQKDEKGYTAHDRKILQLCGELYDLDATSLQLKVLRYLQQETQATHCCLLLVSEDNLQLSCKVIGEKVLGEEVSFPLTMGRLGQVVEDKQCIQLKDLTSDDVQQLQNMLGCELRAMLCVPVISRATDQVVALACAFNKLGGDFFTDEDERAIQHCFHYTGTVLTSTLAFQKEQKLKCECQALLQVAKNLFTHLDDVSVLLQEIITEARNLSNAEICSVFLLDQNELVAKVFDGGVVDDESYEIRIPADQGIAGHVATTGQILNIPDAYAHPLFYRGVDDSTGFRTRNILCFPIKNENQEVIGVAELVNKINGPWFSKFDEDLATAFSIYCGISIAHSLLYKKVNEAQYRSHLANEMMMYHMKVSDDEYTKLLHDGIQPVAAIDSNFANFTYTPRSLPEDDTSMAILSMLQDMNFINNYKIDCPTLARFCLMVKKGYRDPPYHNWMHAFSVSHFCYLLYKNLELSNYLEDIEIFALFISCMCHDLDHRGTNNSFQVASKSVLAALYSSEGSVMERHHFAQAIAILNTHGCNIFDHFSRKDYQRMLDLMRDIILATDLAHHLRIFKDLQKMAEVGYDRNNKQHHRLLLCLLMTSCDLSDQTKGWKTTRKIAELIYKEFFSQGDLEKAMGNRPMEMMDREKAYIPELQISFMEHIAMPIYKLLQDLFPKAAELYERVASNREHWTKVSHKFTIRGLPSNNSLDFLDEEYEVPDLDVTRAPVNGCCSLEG

[5] = human clone by default (no (r) mark), read-out: hPDE10A2 or rPDE10A2 Emax
[6] = human clone by default (no (r) mark), read-out: hPDE10A2 or rPDE10A2 pIC50 (converted)
[7] = human recombinant PDE2A, 10 μM cGMP substrate
[8] = human clone (h), default, read-out: hPDE10A2 Emax
[9] = human clone (h), default, read-out: hPDE10A2 pIC50 (converted)

T3 sequence (Q9Y233 267-1055): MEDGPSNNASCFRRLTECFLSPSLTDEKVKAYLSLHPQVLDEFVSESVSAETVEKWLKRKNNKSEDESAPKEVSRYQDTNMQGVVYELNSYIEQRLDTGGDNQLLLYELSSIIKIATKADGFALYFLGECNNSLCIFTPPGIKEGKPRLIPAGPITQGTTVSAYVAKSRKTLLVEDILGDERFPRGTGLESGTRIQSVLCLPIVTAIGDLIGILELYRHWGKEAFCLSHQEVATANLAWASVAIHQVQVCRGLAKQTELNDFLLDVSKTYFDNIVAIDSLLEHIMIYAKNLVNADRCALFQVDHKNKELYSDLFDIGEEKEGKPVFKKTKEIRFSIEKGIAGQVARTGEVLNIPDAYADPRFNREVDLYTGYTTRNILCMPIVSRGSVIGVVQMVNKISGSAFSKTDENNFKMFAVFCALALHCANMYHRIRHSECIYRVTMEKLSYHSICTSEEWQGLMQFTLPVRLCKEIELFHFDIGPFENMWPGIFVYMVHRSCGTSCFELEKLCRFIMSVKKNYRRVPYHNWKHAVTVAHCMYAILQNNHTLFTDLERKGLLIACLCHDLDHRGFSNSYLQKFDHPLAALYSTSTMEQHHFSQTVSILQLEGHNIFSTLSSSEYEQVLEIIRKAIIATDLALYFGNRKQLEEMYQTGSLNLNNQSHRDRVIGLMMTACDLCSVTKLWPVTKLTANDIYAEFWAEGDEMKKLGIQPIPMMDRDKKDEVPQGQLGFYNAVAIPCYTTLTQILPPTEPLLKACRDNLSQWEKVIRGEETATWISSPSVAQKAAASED
T1 sequence (O00408 whole entry): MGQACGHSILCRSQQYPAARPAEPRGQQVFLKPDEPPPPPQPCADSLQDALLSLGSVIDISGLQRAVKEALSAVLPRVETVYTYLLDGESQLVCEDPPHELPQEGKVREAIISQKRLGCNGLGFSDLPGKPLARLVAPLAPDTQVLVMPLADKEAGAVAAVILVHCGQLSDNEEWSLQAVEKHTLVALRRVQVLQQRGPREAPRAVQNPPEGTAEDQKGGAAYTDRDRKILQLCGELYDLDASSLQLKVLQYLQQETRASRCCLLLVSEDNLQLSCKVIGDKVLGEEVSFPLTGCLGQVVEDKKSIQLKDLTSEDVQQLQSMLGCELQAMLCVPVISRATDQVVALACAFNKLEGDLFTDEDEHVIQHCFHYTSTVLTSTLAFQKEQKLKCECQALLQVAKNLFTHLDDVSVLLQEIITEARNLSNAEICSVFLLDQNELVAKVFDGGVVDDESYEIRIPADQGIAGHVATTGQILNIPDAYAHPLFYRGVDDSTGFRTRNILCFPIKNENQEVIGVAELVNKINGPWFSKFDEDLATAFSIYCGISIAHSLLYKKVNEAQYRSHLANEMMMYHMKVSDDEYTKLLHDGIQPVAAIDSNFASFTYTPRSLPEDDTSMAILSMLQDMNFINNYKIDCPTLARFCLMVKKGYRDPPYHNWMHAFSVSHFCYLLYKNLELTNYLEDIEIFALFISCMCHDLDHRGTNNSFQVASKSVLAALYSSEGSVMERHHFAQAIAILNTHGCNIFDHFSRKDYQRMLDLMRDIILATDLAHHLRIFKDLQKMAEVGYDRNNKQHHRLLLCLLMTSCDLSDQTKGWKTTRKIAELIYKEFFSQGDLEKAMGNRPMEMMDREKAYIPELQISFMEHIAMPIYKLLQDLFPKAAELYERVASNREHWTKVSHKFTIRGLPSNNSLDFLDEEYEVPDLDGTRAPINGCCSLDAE
T2 sequence (Q14432 whole entry): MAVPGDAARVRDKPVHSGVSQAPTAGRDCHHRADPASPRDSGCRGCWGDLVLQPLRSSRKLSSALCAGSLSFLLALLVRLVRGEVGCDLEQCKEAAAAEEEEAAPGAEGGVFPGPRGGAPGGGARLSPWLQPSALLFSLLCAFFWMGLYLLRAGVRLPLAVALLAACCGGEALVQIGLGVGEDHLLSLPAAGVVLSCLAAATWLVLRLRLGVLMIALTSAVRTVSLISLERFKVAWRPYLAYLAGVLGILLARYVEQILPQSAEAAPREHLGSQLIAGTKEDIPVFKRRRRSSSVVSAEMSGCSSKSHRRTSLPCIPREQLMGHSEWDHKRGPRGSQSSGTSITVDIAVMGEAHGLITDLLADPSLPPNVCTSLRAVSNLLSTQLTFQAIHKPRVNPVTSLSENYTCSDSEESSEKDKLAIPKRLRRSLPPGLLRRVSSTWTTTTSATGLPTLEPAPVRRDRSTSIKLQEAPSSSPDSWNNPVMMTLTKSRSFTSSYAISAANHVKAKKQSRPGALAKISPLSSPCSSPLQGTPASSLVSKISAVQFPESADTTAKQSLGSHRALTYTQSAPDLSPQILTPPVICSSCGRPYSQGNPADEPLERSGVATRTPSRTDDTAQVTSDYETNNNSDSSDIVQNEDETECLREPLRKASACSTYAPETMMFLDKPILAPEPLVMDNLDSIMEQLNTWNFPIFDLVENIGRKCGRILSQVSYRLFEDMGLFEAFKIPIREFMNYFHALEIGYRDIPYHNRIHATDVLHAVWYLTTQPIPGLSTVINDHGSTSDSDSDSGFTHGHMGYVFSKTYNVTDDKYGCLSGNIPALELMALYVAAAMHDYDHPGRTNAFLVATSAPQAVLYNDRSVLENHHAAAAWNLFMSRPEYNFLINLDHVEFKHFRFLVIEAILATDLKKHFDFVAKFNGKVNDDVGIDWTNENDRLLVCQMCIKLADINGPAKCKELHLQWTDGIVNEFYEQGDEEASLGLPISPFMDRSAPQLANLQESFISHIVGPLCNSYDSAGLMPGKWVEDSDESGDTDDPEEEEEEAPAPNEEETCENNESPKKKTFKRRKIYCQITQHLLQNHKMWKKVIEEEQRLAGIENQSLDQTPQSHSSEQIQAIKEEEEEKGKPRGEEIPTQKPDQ

## COc1cccc2c1OCC(C(=O)N1[C@H]3CC[C@H](c4cc(C(F)F)nc5ncnn45)[C@@H]1CC3)=C2 [Compound 296]
[1]
  Emax: 99%
  IC50: 0.457 nM
[2]
  IC50: 794 nM
  Emax: 93%
[3]; [5]
  Emax: 100%
[3]; [6]
  IC50: 120 nM
[4]; route PO (oral)
  receptor occupancy at 10 mg/kg: 88%

## C[C@@H]1CCN(C(=O)c2cc(Cl)ncc2Cl)C[C@H]1c1cc(C(F)F)nc2ncnn12 [Compound 43]
[1]; [7]
  IC50: 5.01 nM
[1]; human recombinant PDE2A
  Emax: 99%
[1]
  Emax: 99%
  IC50: 5.01 nM
[2]
  IC50: > 10000 nM
  Emax: 29%
[3]; [8]
  Emax: 88%
[3]; [9]
  IC50: 1320 nM
[4]; po, route PO (oral)
  receptor occupancy at 10 mg/kg: 2%

## Cc1nccc(C(=O)N2CC[C@@H](C)[C@H](c3cc(C(F)F)nc4ncnn34)C2)c1F [Compound 68]
[1]; [7]
  IC50: 6.31 nM
[1]; human recombinant PDE2A
  Emax: 99%
[1]
  Emax: 99%
  IC50: 6.31 nM
[2]
  Emax: 50%
[3]; [8]
  Emax: 85%
[3]; [9]
  IC50: 1380 nM
[4]; sc, route SC (subcutaneous)
  receptor occupancy at 10 mg/kg: 31%

## O=C(c1ccc2cnccc2c1)N1[C@H]2CC[C@H](c3cc(C(F)F)nc4ncnn34)[C@@H]1CC2 [Compound 314]
[1]
  Emax: 100%
  IC50: 5.75 nM
[2]
  IC50: 3550 nM
  Emax: 73%
[3]; [5]
  Emax: 91%
[3]; [6]
  IC50: 933 nM
[4]; route PO (oral)
  receptor occupancy at 10 mg/kg: 5%

## Cc1ccc(C(=O)N2[C@H]3CC[C@H](c4cc(C(F)F)nc5ncnn45)[C@@H]2CC3)cc1Cl [Compound 369]
[1]
  Emax: 100%
  IC50: 4.9 nM
[2]
  IC50: 3720 nM
  Emax: 72%
[3]; [5]
  Emax: 93%
[3]; [6]
  IC50: 724 nM
[4]; route PO (oral)
  receptor occupancy at 10 mg/kg: 9%

## C[C@@H]1CCN(C(=O)c2cnc(Cl)c(Cl)c2)C[C@H]1c1cc(C(F)F)nc2ncnn12 [Compound 64]
[1]; [7]
  IC50: 1.58 nM
[1]; human recombinant PDE2A
  Emax: 99%
[1]
  Emax: 99%
  IC50: 1.58 nM
[2]
  IC50: 6760 nM
  Emax: 62%
[3]; [8]
  Emax: 96%
[3]; [9]
  IC50: 355 nM
[4]; po, route PO (oral)
  receptor occupancy at 10 mg/kg: 7%

## C[C@@H]1CCN(C(=O)c2ccn3cccc3c2)C[C@H]1c1cc(C(F)F)nc2ncnn12 [Compound 90]
[1]; [7]
  IC50: 0.355 nM
[1]; human recombinant PDE2A
  Emax: 101%
[1]
  Emax: 101%
  IC50: 0.355 nM
[2]
  IC50: 214 nM
  Emax: 98%
[3]; [8]
  Emax: 102%
[3]; [9]
  IC50: 19.5 nM
[4]; sc, route SC (subcutaneous)
  receptor occupancy at 10 mg/kg: 73%

## C[C@@H]1CCN(C(=O)c2ccc(O)c(C#N)c2)C[C@H]1c1cc(C(F)F)nc2ncnn12 [Compound 231]
[1]; [7]
  IC50: 1.35 nM
[1]; human recombinant PDE2A
  Emax: 97%
[1]
  Emax: 97%
  IC50: 1.35 nM
[2]
  IC50: 9120 nM
  Emax: 57%
[3]; [8]
  Emax: 100%
[3]; [9]
  IC50: 19.5 nM
[3]; [5]
  Emax: 100%
[3]; [6]
  IC50: 19.5 nM
[4]; sc, route SC (subcutaneous)
  receptor occupancy at 10 mg/kg: -13%

## C[C@@H]1CCN(C(=O)c2ccc(Cl)c(OC(F)F)c2)C[C@H]1c1cc(C(F)F)nc2ncnn12 [Compound 121]
[1]; [7]
  IC50: 1.78 nM
[1]; human recombinant PDE2A
  Emax: 99%
[1]
  Emax: 99%
  IC50: 1.78 nM
[2]
  IC50: 513 nM
  Emax: 95%
[3]; [8]
  Emax: 96%
[3]; [9]
  IC50: 58.9 nM
[4]; po, route PO (oral)
  receptor occupancy at 10 mg/kg: -15%

## C[C@@H]1CCN(C(=O)c2ccc(Cl)c(C(F)(F)F)c2)C[C@H]1c1cc(C(F)F)nc2ncnn12 [Compound 169]
[1]; [7]
  IC50: 3.72 nM
[1]; human recombinant PDE2A
  Emax: 98%
[1]
  Emax: 98%
  IC50: 3.72 nM
[2]
  IC50: 1780 nM
  Emax: 82%
[3]; [8]
  Emax: 98%
[3]; [9]
  IC50: 178 nM
[4]; po, route PO (oral)
  receptor occupancy at 10 mg/kg: 3%
